The results in this text go back to patent publication US10670605B2, “Cysteine reactive probes and uses thereof” (The Scripps Research Institute, priority 2015, dated 2020).

SMILES strings stand for the structures.

What all share (test): Competitive isoTOP-ABPP in situ (fragment-treated cells)
Format in all cases: cell-based

Assay [1] concerns the target cysteines in MDA-MB-231 and Ramos cells (Homo sapiens, UniProt O75362). The following applies: 200 μM, insitu.
In assay [2] the target is cysteines in MDA-MB-231 and Ramos cells (Homo sapiens, UniProt Q96EY5). The following applies: 200 μM, insitu.
The target in assay [3] is T1, cysteines in MDA-MB-231 and Ramos cells (Homo sapiens, UniProt Q9NQ88).
T1 sequence (Q9NQ88 1-270): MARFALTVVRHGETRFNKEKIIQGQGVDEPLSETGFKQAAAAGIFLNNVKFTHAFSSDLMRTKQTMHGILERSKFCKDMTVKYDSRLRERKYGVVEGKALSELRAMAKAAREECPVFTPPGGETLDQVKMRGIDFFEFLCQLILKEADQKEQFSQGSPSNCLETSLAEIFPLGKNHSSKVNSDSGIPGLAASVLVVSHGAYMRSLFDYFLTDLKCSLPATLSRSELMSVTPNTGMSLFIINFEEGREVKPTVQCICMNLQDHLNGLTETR
The following applies: 200 μM, insitu.

The target in assay [4] is T2, cysteines in MDA-MB-231 and Ramos cells (Homo sapiens, UniProt P55265).
T2 sequence (P55265 1-1226): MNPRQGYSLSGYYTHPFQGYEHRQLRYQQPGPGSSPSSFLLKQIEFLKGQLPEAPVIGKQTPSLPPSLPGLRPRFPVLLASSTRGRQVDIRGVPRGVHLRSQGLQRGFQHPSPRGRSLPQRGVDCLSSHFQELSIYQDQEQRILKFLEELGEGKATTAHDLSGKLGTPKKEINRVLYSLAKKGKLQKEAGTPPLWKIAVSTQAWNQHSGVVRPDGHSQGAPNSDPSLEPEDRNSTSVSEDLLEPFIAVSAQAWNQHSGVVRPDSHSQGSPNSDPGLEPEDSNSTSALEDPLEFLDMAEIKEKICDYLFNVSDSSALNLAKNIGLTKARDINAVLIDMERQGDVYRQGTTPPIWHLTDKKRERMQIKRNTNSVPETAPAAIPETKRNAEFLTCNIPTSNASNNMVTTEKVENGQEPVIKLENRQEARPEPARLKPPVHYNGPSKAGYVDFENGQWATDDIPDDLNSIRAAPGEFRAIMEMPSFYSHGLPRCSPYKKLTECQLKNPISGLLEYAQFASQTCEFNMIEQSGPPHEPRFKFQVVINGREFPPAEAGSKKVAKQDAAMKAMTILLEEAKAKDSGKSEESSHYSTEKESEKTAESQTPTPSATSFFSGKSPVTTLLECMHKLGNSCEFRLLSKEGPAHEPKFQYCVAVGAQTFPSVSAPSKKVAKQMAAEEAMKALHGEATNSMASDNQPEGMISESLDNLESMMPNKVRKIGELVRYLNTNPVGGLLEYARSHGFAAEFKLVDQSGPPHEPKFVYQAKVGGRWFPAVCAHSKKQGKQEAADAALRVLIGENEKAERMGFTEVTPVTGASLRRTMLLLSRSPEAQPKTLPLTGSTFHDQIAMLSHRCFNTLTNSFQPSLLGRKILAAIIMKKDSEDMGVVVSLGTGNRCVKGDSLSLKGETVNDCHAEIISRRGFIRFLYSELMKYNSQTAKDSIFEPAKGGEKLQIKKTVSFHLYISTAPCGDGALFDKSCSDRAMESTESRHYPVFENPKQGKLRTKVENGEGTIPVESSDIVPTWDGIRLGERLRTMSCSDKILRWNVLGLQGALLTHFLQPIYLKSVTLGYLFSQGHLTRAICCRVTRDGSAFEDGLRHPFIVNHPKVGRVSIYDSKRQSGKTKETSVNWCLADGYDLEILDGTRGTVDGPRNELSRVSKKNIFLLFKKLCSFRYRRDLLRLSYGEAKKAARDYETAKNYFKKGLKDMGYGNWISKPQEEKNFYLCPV
As to conditions: 200 μM, insitu.

For assay [5], the target named is cysteines in MDA-MB-231 and Ramos cells (Homo sapiens, UniProt P27708). As to conditions: 200 μM, insitu.
cysteines in MDA-MB-231 and Ramos cells (Homo sapiens, UniProt P27708), sequence (P27708 whole entry): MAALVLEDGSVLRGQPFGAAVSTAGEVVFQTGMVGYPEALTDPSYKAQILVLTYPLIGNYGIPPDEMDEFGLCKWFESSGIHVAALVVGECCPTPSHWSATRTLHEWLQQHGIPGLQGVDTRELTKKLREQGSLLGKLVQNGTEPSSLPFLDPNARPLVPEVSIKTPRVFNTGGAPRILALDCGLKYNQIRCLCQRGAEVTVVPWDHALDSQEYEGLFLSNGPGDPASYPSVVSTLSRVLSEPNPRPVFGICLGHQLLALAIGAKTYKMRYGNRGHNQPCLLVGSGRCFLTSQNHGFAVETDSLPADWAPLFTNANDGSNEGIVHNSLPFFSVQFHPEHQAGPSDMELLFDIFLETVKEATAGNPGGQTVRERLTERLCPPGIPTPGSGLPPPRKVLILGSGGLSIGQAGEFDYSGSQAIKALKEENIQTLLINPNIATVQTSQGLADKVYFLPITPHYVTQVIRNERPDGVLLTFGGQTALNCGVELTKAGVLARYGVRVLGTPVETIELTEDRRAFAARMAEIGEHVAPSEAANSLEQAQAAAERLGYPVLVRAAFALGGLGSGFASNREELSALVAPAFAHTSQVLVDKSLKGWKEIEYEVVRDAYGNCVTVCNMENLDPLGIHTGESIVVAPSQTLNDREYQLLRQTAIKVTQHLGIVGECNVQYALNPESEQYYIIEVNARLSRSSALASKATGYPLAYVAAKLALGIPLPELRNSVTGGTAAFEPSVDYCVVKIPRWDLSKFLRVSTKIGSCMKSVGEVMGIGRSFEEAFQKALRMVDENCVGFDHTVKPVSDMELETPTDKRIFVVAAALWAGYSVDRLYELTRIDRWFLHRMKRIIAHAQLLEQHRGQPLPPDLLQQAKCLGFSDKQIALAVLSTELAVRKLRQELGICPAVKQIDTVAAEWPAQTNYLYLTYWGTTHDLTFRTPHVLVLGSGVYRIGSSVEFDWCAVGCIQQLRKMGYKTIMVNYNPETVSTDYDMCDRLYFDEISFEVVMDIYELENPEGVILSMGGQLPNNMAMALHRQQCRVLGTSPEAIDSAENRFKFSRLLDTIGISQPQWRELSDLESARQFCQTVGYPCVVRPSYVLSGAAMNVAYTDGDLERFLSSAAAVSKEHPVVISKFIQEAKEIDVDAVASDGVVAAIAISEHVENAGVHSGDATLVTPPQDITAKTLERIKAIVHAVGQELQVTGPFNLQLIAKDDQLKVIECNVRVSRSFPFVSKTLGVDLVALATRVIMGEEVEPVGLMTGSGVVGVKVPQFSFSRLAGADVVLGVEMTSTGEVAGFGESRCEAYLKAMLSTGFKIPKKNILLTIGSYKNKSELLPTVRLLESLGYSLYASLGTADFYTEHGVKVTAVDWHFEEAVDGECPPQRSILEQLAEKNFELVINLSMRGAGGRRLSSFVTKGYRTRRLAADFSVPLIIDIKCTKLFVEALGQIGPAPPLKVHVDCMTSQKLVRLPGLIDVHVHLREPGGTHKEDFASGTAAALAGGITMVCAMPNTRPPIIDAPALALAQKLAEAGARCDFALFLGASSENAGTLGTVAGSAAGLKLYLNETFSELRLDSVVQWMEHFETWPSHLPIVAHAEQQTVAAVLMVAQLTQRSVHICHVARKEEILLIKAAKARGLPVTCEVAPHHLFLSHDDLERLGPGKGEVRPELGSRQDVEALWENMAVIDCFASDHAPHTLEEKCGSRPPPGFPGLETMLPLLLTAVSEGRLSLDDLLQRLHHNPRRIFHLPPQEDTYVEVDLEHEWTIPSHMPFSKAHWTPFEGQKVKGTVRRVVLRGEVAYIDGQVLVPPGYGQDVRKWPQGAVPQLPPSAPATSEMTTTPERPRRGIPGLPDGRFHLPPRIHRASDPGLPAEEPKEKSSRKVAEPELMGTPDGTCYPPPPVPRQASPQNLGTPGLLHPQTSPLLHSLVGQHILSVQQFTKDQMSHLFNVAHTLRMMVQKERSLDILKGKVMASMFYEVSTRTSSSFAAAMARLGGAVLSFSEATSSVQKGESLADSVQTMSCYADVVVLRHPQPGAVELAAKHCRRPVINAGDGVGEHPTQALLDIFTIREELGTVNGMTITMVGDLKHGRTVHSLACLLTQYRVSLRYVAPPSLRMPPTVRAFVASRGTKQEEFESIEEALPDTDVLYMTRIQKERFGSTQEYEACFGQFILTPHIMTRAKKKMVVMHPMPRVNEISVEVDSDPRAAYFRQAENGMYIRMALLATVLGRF
In assay [6] the target is T3, cysteines in MDA-MB-231 and Ramos cells (Homo sapiens, UniProt P51649).
T3 sequence (P51649 48-535): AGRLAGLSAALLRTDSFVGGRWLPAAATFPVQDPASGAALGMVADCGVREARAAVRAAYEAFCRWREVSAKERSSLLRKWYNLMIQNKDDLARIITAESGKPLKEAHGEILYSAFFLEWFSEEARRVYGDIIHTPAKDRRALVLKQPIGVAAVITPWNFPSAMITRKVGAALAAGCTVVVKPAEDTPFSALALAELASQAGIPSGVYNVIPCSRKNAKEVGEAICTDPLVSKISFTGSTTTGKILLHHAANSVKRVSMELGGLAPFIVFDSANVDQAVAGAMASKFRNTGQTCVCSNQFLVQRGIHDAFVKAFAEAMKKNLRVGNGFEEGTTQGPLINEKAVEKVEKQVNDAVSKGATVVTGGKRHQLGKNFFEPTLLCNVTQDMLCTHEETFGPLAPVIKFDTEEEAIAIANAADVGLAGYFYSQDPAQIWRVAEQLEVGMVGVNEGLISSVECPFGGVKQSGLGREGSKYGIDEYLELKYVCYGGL
The following applies: 200 μM, insitu.

Assay [7] has as its target cysteines in MDA-MB-231 and Ramos cells (Homo sapiens, UniProt Q9BRJ7). The following applies: 200 μM, insitu, 231.
Assay [8] concerns the target T4, cysteines in MDA-MB-231 and Ramos cells (Homo sapiens, UniProt O43175).
T4 sequence (O43175 1-533): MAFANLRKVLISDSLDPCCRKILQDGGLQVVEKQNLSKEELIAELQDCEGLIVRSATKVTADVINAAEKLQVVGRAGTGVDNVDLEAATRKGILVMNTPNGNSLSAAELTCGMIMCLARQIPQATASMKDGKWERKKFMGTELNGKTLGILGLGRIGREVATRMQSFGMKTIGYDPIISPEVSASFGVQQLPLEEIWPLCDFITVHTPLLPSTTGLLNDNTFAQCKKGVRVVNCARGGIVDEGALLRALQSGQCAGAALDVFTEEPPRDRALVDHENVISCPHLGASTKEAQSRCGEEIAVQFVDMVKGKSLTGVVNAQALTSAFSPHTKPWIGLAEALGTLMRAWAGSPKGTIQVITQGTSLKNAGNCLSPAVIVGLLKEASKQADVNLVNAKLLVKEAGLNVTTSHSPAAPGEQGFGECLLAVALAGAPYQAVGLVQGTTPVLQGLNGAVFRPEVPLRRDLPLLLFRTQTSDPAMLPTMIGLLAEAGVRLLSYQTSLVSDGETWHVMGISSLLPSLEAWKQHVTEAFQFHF
The following applies: 200 μM, insitu.

cysteines in MDA-MB-231 and Ramos cells (Homo sapiens, UniProt Q9BRJ7), sequence (Q9BRJ7 whole entry): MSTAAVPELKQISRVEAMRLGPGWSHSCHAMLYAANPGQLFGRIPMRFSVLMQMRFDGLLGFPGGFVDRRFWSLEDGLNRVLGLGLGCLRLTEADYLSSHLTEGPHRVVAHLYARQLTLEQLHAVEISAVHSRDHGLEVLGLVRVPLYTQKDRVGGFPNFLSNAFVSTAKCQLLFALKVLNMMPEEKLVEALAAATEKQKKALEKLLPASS
cysteines in MDA-MB-231 and Ramos cells (Homo sapiens, UniProt O75362), sequence (O75362 whole entry): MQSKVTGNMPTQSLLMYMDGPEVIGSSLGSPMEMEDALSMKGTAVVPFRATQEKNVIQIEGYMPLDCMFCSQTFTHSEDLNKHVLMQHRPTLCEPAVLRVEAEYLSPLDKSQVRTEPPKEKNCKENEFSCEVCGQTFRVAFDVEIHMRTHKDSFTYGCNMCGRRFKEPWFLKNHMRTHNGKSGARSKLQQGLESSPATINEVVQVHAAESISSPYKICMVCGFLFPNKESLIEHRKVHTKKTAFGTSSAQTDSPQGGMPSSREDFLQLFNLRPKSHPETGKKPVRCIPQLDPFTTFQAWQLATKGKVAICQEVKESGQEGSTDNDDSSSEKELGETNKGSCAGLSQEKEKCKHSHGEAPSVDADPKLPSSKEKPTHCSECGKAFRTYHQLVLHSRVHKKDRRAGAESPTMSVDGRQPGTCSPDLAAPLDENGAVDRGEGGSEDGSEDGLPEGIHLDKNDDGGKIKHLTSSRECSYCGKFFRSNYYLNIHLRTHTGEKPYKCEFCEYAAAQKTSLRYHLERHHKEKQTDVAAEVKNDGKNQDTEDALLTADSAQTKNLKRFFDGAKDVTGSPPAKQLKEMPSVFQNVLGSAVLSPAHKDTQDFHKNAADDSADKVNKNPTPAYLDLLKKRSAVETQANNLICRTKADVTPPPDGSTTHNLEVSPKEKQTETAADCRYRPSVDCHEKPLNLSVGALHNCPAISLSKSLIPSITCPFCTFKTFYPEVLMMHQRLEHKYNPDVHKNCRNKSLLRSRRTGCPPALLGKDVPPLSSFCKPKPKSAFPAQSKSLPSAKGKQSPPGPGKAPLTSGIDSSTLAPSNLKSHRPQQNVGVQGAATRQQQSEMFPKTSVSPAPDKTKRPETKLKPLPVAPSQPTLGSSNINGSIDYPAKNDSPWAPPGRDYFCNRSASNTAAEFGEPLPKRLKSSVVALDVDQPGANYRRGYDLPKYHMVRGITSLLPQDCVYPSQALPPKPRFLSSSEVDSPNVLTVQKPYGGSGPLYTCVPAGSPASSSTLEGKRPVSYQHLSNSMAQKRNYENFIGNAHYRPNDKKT

Take `CC(C)CCOCCNC(=O)CCl` [compound 27]: in assay [1] (231), the “isoTOP-ABPP ratio O75362_C286” value is 1.0. In assay [2] (231), the “isoTOP-ABPP ratio Q96EY5_C231” value is 0.6. For the same compound, in assay [3] (231), the “isoTOP-ABPP ratio Q9NQ88_C114” value is reported as 0.4 and the “isoTOP-ABPP ratio Q9NQ88_C161” value is recorded as 0.6. The “isoTOP-ABPP ratio P55265_C1224” value in assay [4] (231) is listed as 1.4. Further, the “isoTOP-ABPP ratio P27708_C73” value in assay [5] (231) is reported as 0.5. Also, in assay [6] (231), the “isoTOP-ABPP ratio P51649_C340” value was determined as 0.9.

Consider `COc1ccccc1OCCNC(=O)CCl` [compound 28], for which the “isoTOP-ABPP ratio O75362_C286” value in assay [1] (231) is listed as 0.9. In addition, in assay [7], the “isoTOP-ABPP ratio Q9BRJ7_C88” value turned out to be 1.7.

Take `O=C(CCl)N1CCN(CC(=O)N2CCOCC2)CC1` [compound 29]: the “isoTOP-ABPP ratio O75362_C286” value in assay [1] (ramos) was found to be 1.0. In addition, the “isoTOP-ABPP ratio Q96EY5_C231” value in assay [2] (ramos) was found to be 1.1. For the same compound, in assay [3] (ramos), the “isoTOP-ABPP ratio Q9NQ88_C114” value came to 0.9 and the “isoTOP-ABPP ratio Q9NQ88_C161” value stood at 1.3. In assay [4] (ramos), the “isoTOP-ABPP ratio P55265_C1224” value is recorded as 1.8. The “isoTOP-ABPP ratio P27708_C73” value in assay [5] (ramos) is 1.8. In addition, the “isoTOP-ABPP ratio P51649_C340” value in assay [6] (ramos) was found to be 1.0. In addition, in assay [8] (ramos), the “isoTOP-ABPP ratio O43175_C369” value was determined as 1.1.

In the case of `C=CC(=O)N(Cc1cccnc1)c1cc(C(F)(F)F)cc(C(F)(F)F)c1` [compound 31], the “isoTOP-ABPP ratio Q9NQ88_C161” value is 1.0 in assay [3] (231) and 2.6 in assay [3] (ramos). The “isoTOP-ABPP ratio P51649_C340” value in assay [6] (ramos) was found to be 1.0. Also, the “isoTOP-ABPP ratio Q9BRJ7_C88” value in assay [7] came out at 2.9. The “isoTOP-ABPP ratio O43175_C369” value in assay [8] (231) and in assay [8] (ramos) was 20.0 in each case.

As to `C=CC(=O)Nc1cc(F)c(N2CCN(C(=O)OC(C)(C)C)CC2)c(F)c1` [compound 38], the “isoTOP-ABPP ratio Q96EY5_C231” value in assay [2] (231) turned out to be 1.8. In assay [7], the “isoTOP-ABPP ratio Q9BRJ7_C88” value is reported as 0.4.

In the case of `Cc1ccc(C=C(C#N)C(=O)NCCN2CCOCC2)cc1` [compound 41], the “isoTOP-ABPP ratio O75362_C286” value in assay [1] (231) worked out at 1.0. The “isoTOP-ABPP ratio Q9NQ88_C114” value in assay [3] (231) was found to be 0.6. In addition, the “isoTOP-ABPP ratio P27708_C73” value in assay [5] (231) came to 0.7.

With `CC1CCc2ccccc2N1C(=O)CCl` (stereo not drawn) [compound 45], in assay [1] (231), the “isoTOP-ABPP ratio O75362_C286” value worked out at 20.0. Besides, in assay [3] (231), the “isoTOP-ABPP ratio Q9NQ88_C114” value was 4.6 and the “isoTOP-ABPP ratio Q9NQ88_C161” value is listed as 20.0. In assay [4] (231), the “isoTOP-ABPP ratio P55265_C1224” value is 20.0. For the same compound, the “isoTOP-ABPP ratio P51649_C340” value in assay [6] (231) is 2.4. In assay [7], the “isoTOP-ABPP ratio Q9BRJ7_C88” value worked out at 1.6.

Take `O=C(CCl)Nc1cccc2ncccc12` [compound 51]: the “isoTOP-ABPP ratio P55265_C1224” value in assay [4] (231) is on record as 1.3. The “isoTOP-ABPP ratio Q9BRJ7_C88” value in assay [7] was 1.0.
